Data on 29 compounds can be found in patent US8372885B2, “Organic compounds and their uses” (Novartis AG, priority 2008, dated 2013).

The first assay deals with T1, P. aeruginosa LpxC (Pseudomonas aeruginosa, UniProt P47205).
T1 construct: made in house
T1 sequence (P47205 1-303): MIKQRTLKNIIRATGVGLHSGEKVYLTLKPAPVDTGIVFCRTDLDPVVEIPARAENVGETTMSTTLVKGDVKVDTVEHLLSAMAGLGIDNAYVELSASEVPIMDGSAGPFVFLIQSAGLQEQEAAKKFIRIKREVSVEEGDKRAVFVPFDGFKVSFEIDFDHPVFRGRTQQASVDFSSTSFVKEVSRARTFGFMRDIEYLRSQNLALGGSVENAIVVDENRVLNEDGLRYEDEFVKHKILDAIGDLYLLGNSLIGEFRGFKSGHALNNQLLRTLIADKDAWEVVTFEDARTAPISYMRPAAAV
The experiment in a line: biochemical. As to conditions: 1 nM P. aeruginosa LpxC, 30 min pre-incubation, 2 μM UDP-3-O-(R-3-hydroxydecanoyl)-GlcNAc, pH 7.5, room temperature; read-out: IC50 (LpxC inhibitory activity). The text has this:
The LC-MS/MS method for quantitation of LpxC product was developed using an Agilent 1200 Capillary HPLC system coupled to an Applied Biosystems MDS Sciex 4000QTRAP mass spectrometer. Both instruments are controlled using the Applied Biosystems MDS Sciex Analyst software. LpxC reaction product (UDP-3-O—(R-3-hydroxyacyl)-glucosamine) was produced by hydrolysis of LpxC substrate catalyzed by P. a. LpxC and purified using reversed phase chromatography on a Phenomenex Luna C18(2) 4.6×50 mm column. An LpxC product calibration curve was generated to evaluate the sensitivity and dynamic range of the LC-MS/MS method. Briefly, compounds are pre-incubated with 1 nM P. aeruginosa LpxC for 30 min. at room temperature. Reactions are initiated by the addition of 2 μM UDP-3-O—(R-3-hydroxydecanoyl)-GlcNAc. Reactions are conducted in a 96-well plate with a total volume of 100 μL in each well containing 50 mM Sodium phosphate pH 7.5, 0.005% Trition X-100 for 20 min at room temperature. After quenching with 1.8% HOAc (10 μL of a 20% HOAc added to each well), reaction mixtures are analyzed using the LC-MS/MS method and peak areas are transformed into product concentration using a LpxC product calibration curve. […] For IC50 determinations, peak areas are converted to percent inhibition in Microsoft Excel. Percent inhibition values are plotted vs. log compound concentration using XLfit. Data is fit to the four-parameter logistic equation using the non-linear regression algorithm in XLfit to return the IC50 and hill slope values.
What is called IC50 is the point on the concentration scale where inhibition reaches its midpoint. Take `CC(C)(N)[C@H](NC(=O)c1ccc(OCC#CC2=CCC(O)CC2)cc1)C(=O)NO` (some centres unmarked) [Example 76]: the IC50 is 0.03 nM.

On to `CC(C)(N)[C@H](NC(=O)c1ccc(OCC#Cc2ccc3c(c2)CCO3)cc1)C(=O)NO` [Example 67], for which the IC50 came out at 540 nM.

Consider `CC#CCOc1ccc(C(=O)N[C@H](C(=O)NO)C(C)(C)N)c(O)c1` [Example 74], for which the IC50 worked out at 3 nM.

For the compound `CC#CCSc1ccc(C(=O)NC(C(=O)NO)C(C)(C)N)cc1` (centres unmarked) [Example 52], the IC50 was 4.4 nM.

For the compound `CC#CCCOc1ccc(C(=O)NC(C(=O)NO)C(C)(C)N)cc1` (centres unmarked) [Example 25], the IC50 amounted to 35.1 nM.

On to `CC#CCOc1ccc(C(=O)N[C@@H](CN)C(=O)NO)cc1` [Example 51], for which the IC50 was 128 nM.

For the compound `CC(C)(N)[C@H](NC(=O)c1ccc(OCC#CC2=CCOCC2)cc1)C(=O)NO` [Example 12, N-((S)-2-Amino-1-hydroxycarbamoyl-2-methyl-propyl)-4-[3-(3,6-dihydro-2H-pyran-4-yl)-prop-2-ynyloxy]-benzamide], the IC50 stood at 2 nM.

As to `CC#CCOc1ccc(C(=O)NC(C(=O)NO)C2(N)CC2)cc1` (centres unmarked) [Example 1, N-(1-(1-aminocyclopropyl)-2-(hydroxyamino)-2-oxoethyl)-4-(but-2-ynyloxy)benzamide], the IC50 worked out at 13.7 nM.

With `CC(C)=CC#CCOc1ccc(C(=O)N[C@H](C(=O)NO)[C@@H](C)N)cc1` [Example 60], the IC50 came to 8 nM.

Turning to `CCC#CCOc1ccc(C(=O)NC(C(=O)NO)C(C)(C)N)cc1` (centres unmarked) [Example 21], the IC50 worked out at 1 nM.

Take `C[C@@H](N)[C@H](NC(=O)c1ccc(OCC#CC2CCC2)cc1)C(=O)NO` [Example 58]: the IC50 came to 6.5 nM.

As for `CCCC#CCOc1ccc(C(=O)N[C@H](C(=O)NO)[C@@H](C)N)cc1` [Example 23], the IC50 worked out at 1.5 nM.

Take `CCCCCC#CCNc1ccc(C(=O)N[C@@H](CN)C(=O)NO)cn1` [Example 28]: the IC50 came out at 55.7 nM.

For `CC#CCOc1ccc(C(=O)N[C@H](C(=O)NO)C(C)(C)NC)cc1` [Example 59], the IC50 was 3.2 nM.

Regarding `CC(C)(N)[C@H](NC(=O)c1ccc(OCC#Cc2ccc(O)cc2)cc1)C(=O)NO` [Example 68], the IC50 was 1900 nM.

For `CC(C)=CCOc1ccc(C(=O)NC(C(=O)NO)C(C)(C)N)cc1` (centres unmarked) [Example 47], the IC50 was determined as 3.7 nM.

For `CCC#CCOc1ccc(C(=O)N[C@H](C(=O)NO)[C@@H](C)N)cc1` [Example 19], the IC50 was determined as 7.6 nM.

Turning to `CC(C)(N)[C@H](NC(=O)c1ccc(OCC2CC2)cc1)C(=O)NO` [Example 82], the IC50 amounted to 18 nM.

As to `CC(C)(N)[C@H](NC(=O)c1ccc(OCC#CC2=CCC(N)CC2)cc1)C(=O)NO` (some centres unmarked) [Example 75], the IC50 stood at 6 nM.

As for `Cc1ccc(C#CCOc2ccc(C(=O)N[C@H](C(=O)NO)C(C)(C)N)cc2)cc1` [Example 66], the IC50 was determined as 1240 nM.

As to `CC(C)(N)[C@H](NC(=O)c1ccc(OCCC2CC2)cc1)C(=O)NO` [Example 83], the IC50 came to 8 nM.

As for `C=C/C=C/COc1ccc(C(=O)NC(C(=O)NO)C(C)(C)N)cc1` (centres unmarked) [Example 41], the IC50 came out at 2.1 nM.

Turning to `CC(C)(N)[C@H](NC(=O)c1ccc(OCC#CC2CCC2)cc1)C(=O)NO` [Example 81], the IC50 stood at 0.03 nM.

On to `C#CCOc1ccc(C(=O)N[C@H](C(=O)NO)[C@@H](C)N)cc1` [Example 29], for which the IC50 was 38.9 nM.

Turning to `CC#CCOc1ccc(C(=O)N[C@H](C(=O)NO)C(C)(C)N)cc1F` [Example 35], the IC50 worked out at 2.6 nM.

With `C#CC(C)(C)Oc1ccc(C(=O)NC(C(=O)NO)C(C)(C)N)cc1` (centres unmarked) [Example 24], the IC50 came to 1.4 nM.

Take `CC(C)(N)[C@H](NC(=O)c1ccc(OCC#Cc2ccccc2)cc1)C(=O)NO` [Example 80]: the IC50 came out at 1 nM.

`CC(C)(N)[C@H](NC(=O)c1ccc(OCC#Cc2cccnc2)cc1)C(=O)NO` [Example 78]: the IC50 worked out at 10 nM.

The same assay, now with this note: IC50 (LpxC inhibitory activity), 1 nM P. aeruginosa LpxC, 30 min pre-incubation, 2 μM UDP-3-O-(R-3-hydroxydecanoyl)-GlcNAc, pH 7.5, room temperature.
`CC#CCOc1ccc(C(=O)N[C@H](C(=O)NO)[C@@H](N)C(F)(F)F)cc1` [Example 6, N-((2S,3R)-3-amino-4,4,4-trifluoro-1-(hydroxyamino)-1-oxobutan-2-yl)-4-(but-2-ynyloxy)benzamide] registered an IC50 of 13.5 nM.
